Data on five compounds can be found in patent US8629318B2, “Transgenic animals for analyzing CYP3A4 cytochrome P450 gene regulation” (University of Sydney, priority 2000, dated 2014).

Data set [1] concerns −13CYP3A4/lacZ transgene. On the procedure:
(§1) Administration of xenobiotics to mice. 8-10 week old male and female mice hemizygous for the −CYP3A4/lacZ and −13CYP3A4/lacZ transgenes were used to test the ability of a range of xenobiotics and hormones to activate expression of transgene-derived β-galactosidase. […] The dose used for all reagents to test for induction of the transgene was 100 mg/kg body weight. Dose response studies were carried out in the range of 1-100 mg/kg with male hemizygous transgenic mice.
(§2) Analysis of transgene and mouse Cyp3a gene expression. β-galactosidase activity was visualised in slices and frozen sections of liver and other tissues by staining with X-gal (5-bromo-4-chloro-3-indolyl-β-D-galactopyranoside). Tissues were fixed in 0.25% glutaraldehyde, 0.1 M phosphate buffer pH7.3, 5 mM EGTA, 2 mM MgCl2: washed in 0.1 M phosphate buffer pH7.3, 0.01% sodium deoxycholate, 0.025% NP40, 2 mM MgCl2 and stained by incubation at 37° C. in wash solution supplemented with 1 mg/ml X-gal, 5 mM potassium ferricyanide, and 5 mM potassium ferrocyanide. The level of β-galactosidase activity was determined in whole liver homogenates [100 mg fresh tissue/ml 0.25M Tris-HCl (pH 7.3)] using the O-nitrophenyl-β-D-galactopyranoside (ONPG) assay according to standard techniques. After appropriate dilution the homogenate was incubated with β-galactosidase assay reagent (0.1 M sodium phosphate buffer (pH7.3)/1 mM MgCl2/50 mmol β-mercaptoethanol/0.88 mg/ml ONPG) at 37° C., quenched by the addition of 1 M Na2CO3 and the absorbance at 420 nm determined. The units of β-galactosidase activity are given as A420/mg liver/minute.

The subject of data set [2] is −13CYP3A4/lacZ transgene. Kind of data set: β-galactosidase activity in total liver lysates, ONPG assay, line 9/4. The class given is in vivo, mouse. The settings on record: 100 mg/kg i.p. daily for 4 days, FIG. 3A. The method, then: as §1, §2
The next data set concerns mouse Cyp3all gene. The settings on record: in vivo, ip, 100 mg/kg. On the procedure: as §1
Filters were stripped and reprobed with an 18S rRNA oligonucleotide to normalise loading.

For data set [3], the system named is −13CYP3A4/lacZ transgene. Kind of data set: Xenobiotic induction of transgene expression in line 15/10. It is filed as in vivo, mouse. The settings on record: data not shown. On the procedure: as §1
Analysis of transgene and mouse Cyp3a gene expression. β-galactosidase activity was visualised in slices and frozen sections of liver and other tissues by staining with X-gal (5-bromo-4-chloro-3-indolyl-β-D-galactopyranoside). […] The level of β-galactosidase activity was determined in whole liver homogenates [100 mg fresh tissue/ml 0.25M Tris-HCl (pH 7.3)] using the O-nitrophenyl-β-D-galactopyranoside (ONPG) assay according to standard techniques. After appropriate dilution the homogenate was incubated with β-galactosidase assay reagent (0.1 M sodium phosphate buffer (pH7.3)/1 mM MgCl2/50 mmol β-mercaptoethanol/0.88 mg/ml ONPG) at 37° C., quenched by the addition of 1 M Na2CO3 and the absorbance at 420 nm determined. […]

“Also recorded” adds a separate entry of the source.

As to `CC(=O)[C@H]1[C@H](C#N)C[C@H]2[C@@H]3CC=C4C[C@@H](O)CC[C@]4(C)[C@H]3CC[C@@]21C` [pregnenolone 16α-carbonitrile], the “hepatic transgene expression, X-gal staining of liver slices (cells containing β-galactosidase)” value in the data set on −13CYP3A4/lacZ transgene [1] (female mice line 9/4, 100 mg/kg i.p. daily for 4 days, compared with corn oil treated mice) is listed as “increased zone of blue staining cells”. The “relative degree of induction of transgene, β-galactosidase activity in liver lysates” value (shortened to “relative degree”) in the data set on −13CYP3A4/lacZ transgene [2] (100 mg/kg) is listed as “most potent xenobiotic activators; also recorded: most potent inducers”. Moreover, the “hepatic Cyp3all mRNA, females versus males” value in the data set on mouse Cyp3all gene was “higher levels of Cyp3all mRNA were observed in females than males”.

As for `Clc1ccccc1C(c1ccccc1)(c1ccccc1)n1ccnc1` [clotrimazole], in the data set on −13CYP3A4/lacZ transgene [2], the “relative degree” value is “intermediate inducers”.

In the case of `C[C@@H]1C[C@H]2[C@@H]3CCC4=CC(=O)C=C[C@]4(C)[C@@]3(F)[C@@H](O)C[C@]2(C)[C@@]1(O)C(=O)COP(=O)(O)O` [dexamethasone, dexamethasone phosphate], the “thickness of zone of X-gal positive hepatocytes” value in the data set with −13CYP3A4/lacZ transgene [1] (line 9/4, 100 mg/kg, FIG. 4B) is “up to 10 cells”. For the same compound, the “thickness of zone of hepatocytes expressing the transgene around the central vein (X-gal)” value in the data set on −13CYP3A4/lacZ transgene [1] (line 9/4, low doses, FIG. 4B) is on record as 1-2 cells. In addition, the “induction profile of transgene expression” value with −13CYP3A4/lacZ transgene [3] is recorded as “most potent activator”.

Regarding `CC(=O)[C@H]1CC[C@H]2[C@@H]3CC=C4C[C@@H](O)CC[C@]4(C)[C@H]3CC[C@]12C` [pregnenolone], the “relative degree” value with −13CYP3A4/lacZ transgene [2] (100 mg/kg) was “very weak inducers; also recorded: the induction was weak compared with xenobiotics”.

As for `O=C1NC(=O)C(c2ccccc2)(c2ccccc2)N1` [phenyloin], the “relative degree” value in the data set on −13CYP3A4/lacZ transgene [2] is on record as “intermediate inducers”.
